Experimental data published in patent US20050019308A1, “Oncolytic viruses for the treatment of neoplasms having activated PP2A or Rac” (Oncolytics Biotech Inc., priority 2003, published 2005).

Assays:
[1] = tested on: PKR; assay: PKR phosphorylation in cells transformed with v-erbB in the presence of selective phosphatase inhibitors; type: cell-based; conditions: in the presence of the inhibitor
Description: (§1) PKR is not phosphorylated (i.e., […]) in cells transformed with elements of the ras pathway, such as v-erbB. To determine whether serine-threonine phosphatases are responsible for the lack of phosphorylation of PKR in these cells, selective inhibitors of the phosphatases are employed to assess the role of each phosphatase. […] Inhibitors specific for PP1 or PP2C have no effects on PKR phosphorylation.

[2] = tested on: reovirus; assay: Susceptibility of phosphatase inhibitor-treated transformed cells to reovirus infection; type: cell-based; conditions: okadaic acid-treated cells
Description: as §1

[3] = tested on: PP2A; conditions: cited from earlier work
[4] = tested on: PP1; conditions: cited from earlier work
[5] = tested on: PP2B; conditions: cited from earlier work

Structure (SMILES): C=C1[C@@H](O)[C@@H]2O[C@]3(CC[C@H](/C=C/[C@@H](C)[C@@H]4CC(C)=C[C@@]5(O[C@H](C[C@@](C)(O)C(=O)O)CC[C@H]5O)O4)O3)CC[C@H]2O[C@@H]1[C@@H](O)C[C@H](C)[C@H]1O[C@@]2(CCCCO2)CC[C@H]1C [okadaic acid]
- effect on PKR phosphorylation [1]: PKR becomes phosphorylated
- susceptibility of treated cells to reovirus infection [2]: become susceptible to reovirus infection
- effectiveness against phosphatase [3]: most effective against PP2A
- effectiveness against phosphatase [4]: less so against PP1
- effectiveness against phosphatase [5]: only marginally against PP2B
